Where two headings read alike, the source gives them in different places. Marks after values point to notes of the source that are not given here.
What was measured:
[1] = PC content of red wine before and after in vitro simulated gastrointestinal digestion (HPLC); type: in vitro ADME; conditions: for Increase in content after digestion: after digestion vs undigested
Experimental: The digestion procedure was carried out by adapting the method of Brodkorb et al. and Gómez et al.. […] One milliliter (50 units/mL) of porcine amylase was prepared in a 15 mM Na₃PO₄ buffer solution (pH adjusted to 6.8) containing 1.5 mM CaCl2, and it was added to the red wine solution. After 5 min, 4.5 mL of 0.12 M HCl was added to the mixture to adjust the pH to 2.4. One milliliter of porcine pepsin (0.02 mg/L) was dissolved in a 20 mM HCl solution. The mixture was then maintained at 37 °C for 120 min. The digestion mixture was then centrifuged at 8000× g for 15 min to obtain samples from the gastric digestion phase. […] The mixture was incubated at pH 6.5 at 37 °C for 3 h before being centrifuged. The extracts of the intestinal phase were the supernatants. The same operation was done three times, and each sample was stored in a refrigerator (−20 °C) immediately for further analysis.
The Pati method was adopted, with slight modifications, to measure the content of the PCs. The Agilent 1100 series HPLC instrument was used; it was equipped with a degasser, quaternary pump solvent delivery, a DAD system, and a single quadrupole mass detector coupled with an electrospray ionization LC–MS interface. Briefly, th samples were injected into a Zorbax SB C18 reversed-phase column (5 µm,150 × 2.1 mm, Agilent Technologies, Santa Clara, CA, USA) using an autosampler after filtering through 0.45 µm cellulose acetate syringe filters. The column temperature was kept at 30 °C, the injection volume was 10 µL, and the flow rate was 0.3 mL/min. The eluents were water and formic acid in a 99:1 (v/v) (A) ratio and 100% acetonitrile (B). […] The MS configuration was as follows: ESI, negative ion mode, nebulizer pressure of 30 psi, a dry gas flow rate of 10 mL/min, dry gas temperature of 350 °C, and a scan rate of 100~1200 m/z. PCs were determined according to their retention times, UV/VIS spectra, and high-resolution MS spectra, in addition to a comparison with the standards. […] Putative annotations were made using spectral features and literature information on the chromatographic properties and mass spectra records from the metabolome database. A standard curve was drawn using methanol solutions with different concentrations as the standards. The limits of detection and quantitation were calculated according to the signal-to-noise ratio (limit of detection: signal-to-noise ratio ≥ 3; limit of quantitation: signal-to-noise ratio ≥ 10). […] PCs All of the samples were determined in triplicate.

Caco-2 cell monolayer = experiment: Caco-2 transepithelial transport assay of digested red wine; type: in vitro ADME, human
Experimental: Caco-2 cells were inoculated following the method of Hubatsch et al. […] Briefly, a 5% v/v of CO2 incubator at 37 °C was used to house the cells. […] Caco-2 cells were sub-cultured when they reached 80-90% of the adherent growth by treating them with a 0.05% v/v of trypsin-EDTA solution. The culture between passages 35 and 40 was used for the following experiment. Transport experiments were performed according to the method of Wu et al. with slight modifications. First, 1.0 × 10^5 Caco-2 cells were inoculated onto 12 mm transparent cell culture plates (Transwell). Media were carefully injected into the apical (0.5 mL) and basolateral (1.5 mL) sides of the Transwell plates. The cell culture medium had to be replaced every other day until the cells formed a monolayer. The integrity and transport ability of the Caco-2 cell monolayer were evaluated by measuring the trans-epithelial electrical resistance (TEER) with a MilliCell voltammeter (Millicell ERS-2, Merck Millipore, Billerica, MA, USA). […] When the cell activity exceeded 0.9, a transport experiment was conducted. The apical side was injected with a digested red wine sample (0.5 mL) and was thoroughly mixed with […] Balanced Salt Solution (HBSS) buffer solution. […] The cells were then cultured in a 37 °C, 5% CO2 incubator. Then, 0.25 mL samples were separately taken from the basolateral side of the monolayer. An equal volume of HBSS buffer was then added every half hour from the beginning of the culture until the end of the culture at 6 h. The collected samples were subsequently filtered and placed in the sample bottle for further HPLC analysis. This experiment was repeated several times to collect enough samples for the next antioxidant test. […] The Agilent 1100 series HPLC instrument was used; it was equipped with a degasser, quaternary pump solvent delivery, a DAD system, and a single quadrupole mass detector coupled with an electrospray ionization LC-MS interface. […] The column temperature was kept at 30 °C, the injection volume was 10 μL, and the flow rate was 0.3 mL/min. The eluents were water and formic acid in a 99:1 (v/v) (A) ratio and 100% acetonitrile (B). The gradient elution procedure was as follows: (1) 3% B solvent at 0 min, (2) 3 to 16% B solvent at 10 min, (3) 16 to 20% B solvent at 30 min, and (4) 20% B solvent maintained until the procedure was completed. The MS configuration was as follows: ESI, negative ion mode, nebulizer pressure of 30 psi, a dry gas flow rate of 10 mL/min, dry gas temperature of 350 °C, and a scan rate of 100~1200 m/z. PCs were determined according to their retention times, UV/VIS spectra, and high-resolution MS spectra, in addition to a comparison with the standards. […] If a standard was unavailable, a structurally related compound was used. Putative annotations were made using spectral features and literature information on the chromatographic properties and mass spectra records from the metabolome database. A standard curve was drawn using methanol solutions with different concentrations as the standards. […] PCs All of the samples were determined in triplicate.

[2] = Cabernet red wine, after simulated gastrointestinal digestion
[3] = Helanshan red wine, after simulated gastrointestinal digestion
[4] = Tianzhu red wine, after simulated gastrointestinal digestion
[5] = Cabernet red wine, digested sample, basolateral side of Caco-2 monolayer
[6] = Helanshan red wine, digested sample, basolateral side of Caco-2 monolayer
[7] = Tianzhu red wine, digested sample, basolateral side of Caco-2 monolayer
[8] = apical to basolateral, digested Cabernet red wine
[9] = apical to basolateral, digested Helanshan red wine
[10] = apical to basolateral, digested Tianzhu red wine

Structure (SMILES) | PC Contents, Cabernet, After Digestion [1] | PC Contents, Helanshan, After Digestion [1] | PC Contents, Tianzhu, After Digestion [1] | Apparent Permeability Coefficients, Cabernet (Caco-2 cell monolayer; Caco-2) | Apparent Permeability Coefficients, Helanshan (Caco-2 cell monolayer; Caco-2) | Apparent Permeability Coefficients, Tianzhu (Caco-2 cell monolayer; Caco-2) | PC Contents, Cabernet, After Digestion [1, 2] | PC Contents, Helanshan, After Digestion [1, 3] | PC Contents, Tianzhu, After Digestion [1, 4] | PC Contents, Cabernet, Transmembrane (Caco-2 cell monolayer; [5]) | PC Contents, Helanshan, Transmembrane (Caco-2 cell monolayer; [6]) | PC Contents, Tianzhu, Transmembrane (Caco-2 cell monolayer; [7]) | Apparent Permeability Coefficients, Cabernet (Caco-2 cell monolayer; [8]) | Apparent Permeability Coefficients, Helanshan (Caco-2 cell monolayer; [9]) | Apparent Permeability Coefficients, Tianzhu (Caco-2 cell monolayer; [10]) | PC Contents, Cabernet, Transmembrane (Caco-2 cell monolayer; Caco-2) | PC Contents, Helanshan, Transmembrane (Caco-2 cell monolayer; Caco-2) | PC Contents, Tianzhu, Transmembrane (Caco-2 cell monolayer; Caco-2) | Increase in content after digestion ([1]; Helanshan red wine) [%] | Increase in content after digestion ([1]; Tianzhu red wine) [%]
O.Oc1cc(O)c2c(c1)O[C@H](c1ccc(O)c(O)c1)[C@@H](O)C2 [Catechin] | 25.4 ± 0.86 ^b mg/L | 15.42 ± 0.83 ^b mg/L | 16.7 ± 0.75 ^b mg/L | 7.77 ± 1.14 ^a ×10^−6 cm/s | 7.69 ± 1.23 ^a ×10^−6 cm/s | 7.83 ± 1.17 ^a ×10^−6 cm/s |  |  |  |  |  |  |  |  |  |  |  |  |  | 
CC(=O)OCC1OC(Oc2cc3c(O)cc(O)cc3[o+]c2-c2cc(O)c(O)c(O)c2)C(O)C(O)C1O (centres unmarked) [Delphinidin-3-acglc] |  |  |  |  |  |  | 0.29 ± 0.014 ^b mg/L | 0.14 ± 0.007 ^b mg/L | 0.22 ± 0.008 ^b mg/L | 0.04 ± 0.002 ^a mg/L | 0.02 ± 0.001 ^a mg/L | 0.04 ± 0.002 ^a mg/L | 8.57 ± 1.26 ^a ×10^−6 cm/s | 8.64 ± 1.38 ^a ×10^−6 cm/s | 8.78 ± 1.44 ^a ×10^−6 cm/s |  |  |  |  | 
COc1cc(-c2oc3cc(O)cc(O)c3c(=O)c2O[C@@H]2O[C@H](CO)[C@@H](O)[C@H](O)[C@H]2O)cc(O)c1O [Laricitrin-3-glc] | 29.78 ± 1.28 ^b mg/L | 18.76 ± 0.81 ^b mg/L | 28.63 ± 0.86 ^b mg/L | 1.76 ± 0.17 ^a ×10^−6 cm/s | 1.83 ± 0.16 ^a ×10^−6 cm/s | 1.79 ± 0.13 ^a ×10^−6 cm/s |  |  |  |  |  |  |  |  |  | 0.84 ± 0.04 ^a mg/L | 0.55 ± 0.03 ^a mg/L | 5.70 ± 0.29 ^a mg/L |  | 
O=c1c(OC2O[C@H](CO)[C@@H](O)[C@H](O)[C@H]2O)c(-c2cc(O)c(O)c(O)c2)oc2cc(O)cc(O)c12 (some centres unmarked) [Myricetin-3-glc] |  |  |  |  |  |  | 36.91 ± 1.10 ^b mg/L | 28.45 ± 1.51 ^b mg/L | 43.22 ± 1.34 ^b mg/L | 0.81 ± 0.04 ^a mg/L | 0.64 ± 0.02 ^a mg/L | 8.61 ± 0.43 ^a mg/L | 1.38 ± 0.17 ^a ×10^−6 cm/s | 1.41 ± 0.21 ^a ×10^−6 cm/s | 1.35 ± 0.19 ^a ×10^−6 cm/s |  |  |  |  | 
COc1cc(-c2[o+]c3cc(O)cc(O)c3cc2O[C@@H]2O[C@H](COC(C)=O)[C@@H](O)[C@H](O)[C@H]2O)cc(OC)c1O [Malvidin-3-acglc] |  |  |  |  |  |  | 39.8 ± 1.51 ^b mg/L | 30.5 ± 0.92 ^b mg/L | 39.3 ± 1.30 ^b mg/L | 8.02 ± 0.38 ^a mg/L | 6.06 ± 0.25 ^a mg/L | 7.83 ± 0.23 ^a mg/L | 12.59 ± 2.16 ^a ×10^−6 cm/s | 12.42 ± 2.23 ^a ×10^−6 cm/s | 12.37 ± 2.45 ^a ×10^−6 cm/s |  |  |  |  | 
OC[C@H]1O[C@@H](Oc2cc3c(O)cc(O)cc3[o+]c2-c2cc(O)c(O)c(O)c2)[C@H](O)[C@@H](O)[C@@H]1O [Delphinidin-3-glc, delphinidin-3-glucoside] |  |  |  |  |  |  | 2.96 ± 0.09 ^b mg/L | 2.63 ± 0.10 ^c mg/L | 2.87 ± 0.11 ^c mg/L | 0.59 ± 0.02 ^a mg/L | 0.53 ± 0.02 ^a mg/L | 0.57 ± 0.02 ^a mg/L | 12.38 ± 2.37 ^a ×10^−6 cm/s | 12.59 ± 2.64 ^a ×10^−6 cm/s | 12.45 ± 2.11 ^a ×10^−6 cm/s |  |  |  | 28.3 | 20.6
COc1cc(-c2oc3cc(O)cc(O)c3c(=O)c2O[C@@H]2O[C@H](CO)[C@@H](O)[C@H](O)[C@H]2O)cc(OC)c1O [Syringetin-3-glc] | 26.34 ± 0.90 ^b mg/L | 20.17 ± 1.01 ^b mg/L | 30.19 ± 1.03 ^b mg/L | 2.91 ± 0.21 ^a ×10^−6 cm/s | 2.81 ± 0.29 ^a ×10^−6 cm/s | 2.88 ± 0.23 ^a ×10^−6 cm/s |  |  |  |  |  |  |  |  |  | 1.23 ± 0.04 ^a mg/L | 0.91 ± 0.03 ^a mg/L | 6.01 ± 0.22 ^a mg/L |  | 
COc1cc(-c2[o+]c3cc(O)cc(O)c3cc2O[C@@H]2O[C@H](CO)[C@@H](O)[C@H](O)[C@H]2O)cc(O)c1O [Petunidin-3-glc] | 5.79 ± 0.27 ^b mg/L | 4.98 ± 0.19 ^b mg/L | 5.33 ± 0.21 ^b mg/L | 16.89 ± 2.96 ^a ×10^−6 cm/s | 17.56 ± 3.32 ^a ×10^−6 cm/s | 17.13 ± 3.01 ^a ×10^−6 cm/s |  |  |  |  |  |  |  |  |  | 1.56 ± 0.07 ^a mg/L | 1.40 ± 0.05 ^a mg/L | 1.06 ± 0.04 ^a mg/L |  | 

From publication PMC9562916, “Investigation of the Phenolic Component Bioavailability Using the In Vitro Digestion/Caco-2 Cell Model, as well as the Antioxidant Activity in Chinese Red Wine” (Foods, 2022)
